The structures appear in SMILES notation. ≈ marks a conversion by molar mass, not a printed value.

In one experiment the test system is MCF-7. In words: In vitro cytotoxicity, MTT assay. The conditions noted are these: Homo sapiens, MCF7, MCF-7 (breast), 48 hours. Format: cell-based. A general note: Tetrazolium dyes change colour on reduction, which living cells bring about.
A further experiment concerns MDA-MB-231. Description: In vitro cytotoxicity, MTT assay. The conditions noted are these: Homo sapiens, MDA-MB-231 (breast), 48 hours. In kind it is cell-based.
The next experiment deals with NCI-H1437. In words: In vitro cytotoxicity, MTT assay. In kind it is cell-based. The note with it: Homo sapiens, NCI-H1437 (lung), 48 hours.
The test system of a further experiment is SK-OV-3. In words: In vitro cytotoxicity, MTT assay. In kind it is cell-based. The note with it: Homo sapiens, SK-OV-3 (ovary), 48 hours.
Another experiment relates to A-549. In words: In vitro cytotoxicity, MTT assay. Format: cell-based. The conditions noted are these: Homo sapiens, A549, A-549 (lung), 48 hours.
Another experiment deals with NCI-H838. Description: In vitro cytotoxicity, MTT assay. Format: cell-based. The note with it: Homo sapiens, NCI-H838 (lung), 48 hours.
The subject of experiment [1] is subcutaneously implanted solid tumors induced by MDA-MB-231 cells. Description: In vivo antitumor efficacy test, breast tumor-bearing nude mice. The note with it: MDA-MB-231 tumors in nude mice, intraperitoneally twice a week for 28 days; paclitaxel 5 mg/kg alone or paclitaxel 0.2 mg/kg + geraniol 45 mg/kg; p<0.001.
Procedure: The antitumor efficacy of composition comprising paclitaxel and geraniol against the subcutaneously implanted solid tumors induced by MDA-MB-231 cells in nude mice was evaluated. Treatments were initiated when the tumors inoculated in nude mice reached a tumor volume of 50-100 mm^3, and this day was designated as Day 1. Mice were divided into 3 different groups consisting of five mice in each group, and administered intraperitoneally with normal saline (control), paclitaxel (5 mg/kg) in normal saline, or composition comprising paclitaxel (0.2 mg/kg) and geraniol (45 mg/kg) twice a week for 28 days. The size of tumor and change of body weight of each mouse were recorded.
The anticancer efficacy of the paclitaxel-geraniol composition was studied in breast tumor-bearing nude mice. […] In the control, mice were injected with normal saline. In Paclitaxel, mice were injected with paclitaxel (5 mg/kg) in normal saline. In the Paclitaxel-geraniol composition, mice were injected with composition comprising paclitaxel (0.2 mg/kg) and geraniol in normal saline.

As usually defined, the IC50 is the concentration that inhibits the measured activity by half. Turning to `O=c1[nH]cc(F)c(=O)[nH]1` [Composition 5-FU, Fluorouracil], the IC50 with MCF-7 was 38.7 mg/L (≈ 298 µM); in the experiment with MDA-MB-231, 328 mg/L (≈ 2520 µM); in the experiment with NCI-H1437 it was over 100 mg/L; in the experiment with SK-OV-3, 66.6 mg/L (≈ 512 µM); in the experiment on A-549, 5.9 mg/L (≈ 45.4 µM); in the experiment with NCI-H838, 12.1 mg/L (≈ 93 µM).

Take `CC(=O)O[C@H]1C(=O)[C@@]2(C)[C@H]([C@H](OC(=O)c3ccccc3)[C@]3(O)C[C@H](OC(=O)[C@H](O)[C@@H](NC(=O)c4ccccc4)c4ccccc4)C(C)=C1C3(C)C)[C@]1(OC(C)=O)CO[C@@H]1C[C@@H]2O` [Paclitaxel, paclitaxel]: the “tumor growth (size of tumor) versus control group” value in experiment [1] is “significantly suppressed the tumor growth in a similar manner”. Besides, the IC50 with MCF-7 is 46 mg/L (≈ 53.9 µM); with MDA-MB-231, 31.9 mg/L (≈ 37.4 µM); in the experiment with NCI-H1437, 36.8 mg/L (≈ 43.1 µM); with SK-OV-3 it was 56.5 mg/L (≈ 66.2 µM); in the experiment on A-549 it was 20.1 mg/L (≈ 23.5 µM); in the experiment on NCI-H838, 30.9 mg/L (≈ 36.2 µM).

The values are drawn from patent publication US20080113042A1, “PHARMACEUTICAL COMPOSITION AND METHOD FOR CANCER TREATMENT BASED ON COMBINATIONAL USE OF CONVENTIONAL ANTICANCER AGENTS AND GERANIUM OIL OR COMPOUNDS THEREOF” (priority 2006, published 2008).
